One assay addresses T1, FXR ligand binding domain (GST-FXR LBD fusion protein, human FXR aa 193-473) (Homo sapiens, UniProt Q96RI1).
T1 construct: fused on or other part: Glutathione-S-transferase (GST) fused N-terminally to the FXR LBD, used to capture the protein on glutathione SPA beads
T1 sequence (Q96RI1 211-486 limits assumed): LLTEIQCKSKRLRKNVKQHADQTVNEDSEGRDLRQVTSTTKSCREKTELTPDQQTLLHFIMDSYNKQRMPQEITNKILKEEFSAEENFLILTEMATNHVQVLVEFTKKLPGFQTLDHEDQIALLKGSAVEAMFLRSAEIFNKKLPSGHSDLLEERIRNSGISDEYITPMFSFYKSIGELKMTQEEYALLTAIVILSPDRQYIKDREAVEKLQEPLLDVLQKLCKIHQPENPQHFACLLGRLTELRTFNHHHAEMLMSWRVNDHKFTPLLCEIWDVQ
In words: Radioligand binding assay (scintillation proximity, radioligand displacement). To be noted: 40 nM GST-FXR LBD on SPA beads, test compound 6×10^−9 M to 2.5×10^−5 M, read-out: h-IC50 Binding. On the procedure:
The following tests were carried out in order to determine the activity of the compounds of formula (I).
To accomplish this, the portions of the sequences encoding the FXR LBD were amplified by polymerase chain reaction (PCR) from a full-length clone by PCR and then subcloned into the plasmid vectors. The final clone was verified by DNA sequence analysis.
The induction, expression, and subsequent purification of GST-LBD fusion protein was performed in E. coli strain BL21(pLysS) cells by standard methods (Current Protocols in Molecular Biology, Wiley Press, ed. Ausubel et al.).
Radioligand Binding Assay
Binding of test substances to the FXR ligand binding domain was assessed in a radioligand displacement assay. The assay was performed in a buffer consisting of 50 mM Hepes, pH 7.4, 10 mM NaCl, 5 mM MgCl2, 0.01% CHAPS. For each reaction well in a 96-well plate, 40 nM of GST-FXR LBD fusion protein was bound to 10 μg glutathione yttrium silicate SPA beads (Pharmacia Amersham) in a final volume of 50 μl by shaking. A radioligand (e.g., 20 nM of 2,N-dicyclohexyl-2-[2-(2,4 dimethoxy-phenyl)-benzoimidazol-1-yl]-acetamide) and test compounds were added, and scintillation proximity counting was performed. All binding assays were performed in 96-well plates and the amount of bound ligand was measured on a Packard TopCount using OptiPlates (Packard).
One may read the IC50 as the concentration needed to halve the response being measured. Turning to `O=C(O)c1cc(F)c(OCC(C2CCCCC2)n2c(-c3ccc(Cl)cc3)nc3cc(F)c(F)cc32)c(F)c1` (single isomer, unassigned; (+)) [Example 87, (+)-4-{2-[2-(4-Chloro-phenyl)-5,6-difluoro-benzoimidazol-1-yl]-2-cyclohexyl-ethoxy}-3,5-difluoro-benzoic acid], the IC50 came to 0.04 µM.

Consider `COc1ccc(-c2nc3cc(F)c(F)cc3n2C(COc2c(F)cc(C(=O)O)cc2F)C2CCCCC2)c(OC)n1` (single isomer, unassigned; (+)) [Example 97, (+)-4-{2-Cyclohexyl-2-[2-(2,6-dimethoxy-pyridin-3-yl)-5,6-difluoro-benzoimidazol-1-yl]-ethoxy}-3,5-difluoro-benzoic acid], for which the IC50 was 0.05 µM.

As for `COc1ccc(-c2nc3cc(F)c(F)cc3n2C(COc2c(C)cc(-c3nnn[nH]3)cc2C)C2CCCCC2)c(OC)n1` (single isomer, unassigned; (+)) [Example 100, (+)-1-{1-Cyclohexyl-2-[2,6-dimethyl-4-(1H-tetrazol-5-yl)-phenoxy]-ethyl}-2-(2,6-dimethoxy-pyridin-3-yl)-5,6-difluoro-1H-benzoimidazole], the IC50 turned out to be 0.02 µM.

As for `O=C(O)c1cc(F)c(OCC(C2CCCCC2)n2c(-c3ccc(Cl)cc3)nc3ccccc32)c(F)c1` (single isomer, unassigned; (+)) [Example 103, (+)-4-{2-[2-(4-Chloro-phenyl)-benzoimidazol-1-yl]-2-cyclohexyl-ethoxy}-3,5-difluoro-benzoic acid], the IC50 was found to be 0.1 µM.

`Cc1cc(C(=O)O)cc(C)c1OCC(C1CCCCC1)n1c(-c2ccc(Cl)cc2)nc2ccccc21` (single isomer, unassigned; (+)) [Example 107, (+)-4-{2-[2-(4-Chloro-phenyl)-benzoimidazol-1-yl]-2-cyclohexyl-ethoxy}-3,5-dimethyl-benzoic acid]: the IC50 came to 0.01 µM.

For `O=C(O)c1cc(F)c(OCC(C2CCCCC2)n2c(-c3ccc(Cl)cc3)nc3ccccc32)c(Cl)c1` (single isomer, unassigned; (+)) [Example 110, (+)-3-Chloro-4-{2-[2-(4-chloro-phenyl)-benzoimidazol-1-yl]-2-cyclohexyl-ethoxy}-5-fluoro-benzoic acid], the IC50 stood at 0.06 µM.

As to `Cc1cc(-c2nnn[nH]2)cc(C)c1OCC(C1CCCCC1)n1c(-c2ccc(Cl)cc2)nc2ccccc21` (single isomer, unassigned; (+)) [Example 113, (+)-2-(4-Chloro-phenyl)-1-{1-cyclohexyl-2-[2,6-dimethyl-4-(1H-tetrazol-5-yl)-phenoxy]-ethyl}-1H-benzoimidazole], the IC50 was determined as 0.002 µM.

Consider `CC(C)(Oc1c(F)cc(C(=O)O)cc1F)C(C1CCCCC1)n1c(-c2ccc(Cl)cc2)nc2cc(F)c(F)cc21` (single isomer, unassigned; (+)) [Example 116, (+)-4-{2-[2-(4-Chloro-phenyl)-5,6-difluoro-benzoimidazol-1-yl]-2-cyclohexyl-1,1-dimethyl-ethoxy}-3,5-difluoro-benzoic acid], for which the IC50 turned out to be 0.002 µM.

In the case of `O=C(O)C1(Oc2ccc(OCC(C3CCCCC3)n3c(-c4ccc(Cl)cc4)nc4cc(F)c(F)cc43)cc2)CCC1` (single isomer, unassigned; (+)) [Example 118, (+)-1-(4-{2-[2-(4-Chloro-phenyl)-5,6-difluoro-benzoimidazol-1-yl]-2-cyclohexyl-ethoxy}-phenoxy)-cyclobutanecarboxylic acid], the IC50 was determined as 0.31 µM.

On to `O=C(O)C1(Oc2ccc(OCC(C3CCCCC3)n3c(-c4ccc(Cl)cc4)nc4cc(F)c(F)cc43)cc2)CC1` (single isomer, unassigned; (+)) [Example 122, (+)-1-(4-{2-[2-(4-Chloro-phenyl)-5,6-difluoro-benzoimidazol-1-yl]-2-cyclohexyl-ethoxy}-phenoxy)-cyclopropanecarboxylic acid], for which the IC50 turned out to be 0.18 µM.

Turning to `Cc1cc(Cl)ccc1-c1nc2cc(F)c(F)cc2n1C(COc1c(F)cc(C(=O)O)cc1F)C1CCCCC1` (single isomer, unassigned; (+)) [Example 126, (+)-4-{2-[2-(4-Chloro-2-methyl-phenyl)-5,6-difluoro-benzoimidazol-1-yl]-2-cyclohexyl-ethoxy}-3,5-difluoro-benzoic acid], the IC50 was found to be 0.03 µM.

Consider `O=C(O)c1cc(F)c(OCC(C2CCCCCC2)n2c(-c3ccc(Cl)cc3)nc3cc(F)c(F)cc32)c(F)c1` (single isomer, unassigned; (+)) [Example 133, (+)-4-{2-[2-(4-Chloro-phenyl)-5,6-difluoro-benzoimidazol-1-yl]-2-cycloheptyl-ethoxy}-3,5-difluoro-benzoic acid], for which the IC50 worked out at 0.01 µM.

On to `O=C(O)c1ccc(CCC(C2CCCCC2)n2c(-c3ccccc3)nc3cc(F)c(F)cc32)cc1` (single isomer, unassigned; (+)) [Example 144, (+)-4-[3-Cyclohexyl-3-(5,6-difluoro-2-phenyl-benzoimidazol-1-yl)-propyl]-benzoic acid], for which the IC50 was 0.2 µM.

In the case of `COc1ccc(-c2nc3cc(F)c(F)cc3n2C(CCc2ccc(C(=O)O)cc2)C2CCCCC2)c(OC)n1` (single isomer, unassigned; (+)) [Example 147, (+)-4-{3-Cyclohexyl-3-[2-(2,6-dimethoxy-pyridin-3-yl)-5,6-difluoro-benzoimidazol-1-yl]-propyl}-benzoic acid], the IC50 amounted to 0.0004 µM.

`Fc1cc2nc(-c3ccc(Cl)cc3)n(C(COCC3CCCCC3)C3CCCCC3)c2cc1F` (single isomer, unassigned; (-)) [Example 2, (−)-2-(4-Chloro-phenyl)-1-(1-cyclohexyl-2-cyclohexylmethoxy-ethyl)-5,6-difluoro-1H-benzoimidazole]: the IC50 was found to be 0.06 µM.

Consider `O=C(O)c1ccc(OCC(C2CCCCC2)n2c(-c3ccc(Cl)cc3)nc3cc(F)c(F)cc32)cc1` (single isomer, unassigned; (-)) [Example 6, (−)-4-{2-[2-(4-Chloro-phenyl)-5,6-difluoro-benzoimidazol-1-yl]-2-cyclohexyl-ethoxy}-benzoic acid], for which the IC50 turned out to be 0.09 µM.

Turning to `Cc1cc(C(=O)O)ccc1OCC(C1CCCCC1)n1c(-c2ccc(Cl)cc2)nc2cc(F)c(F)cc21` (single isomer, unassigned; (-)) [Example 12, (−)-4-{2-[2-(4-Chloro-phenyl)-5,6-difluoro-benzoimidazol-1-yl]-2-cyclohexyl-ethoxy}-3-methyl-benzoic acid], the IC50 was 0.05 µM.

As for `O=C(O)c1ccc(OCC(C2CCCCC2)n2c(-c3ccc(Cl)cc3)nc3cc(F)c(F)cc32)nc1` (single isomer, unassigned; (-)) [Example 21, (−)-6-{2-[2-(4-Chloro-phenyl)-5,6-difluoro-benzoimidazol-1-yl]-2-cyclohexyl-ethoxy}-nicotinic acid], the IC50 came out at 0.6 µM.

In the case of `O=C(O)c1cnc(OCC(C2CCCCC2)n2c(-c3ccc(Cl)cc3)nc3cc(F)c(F)cc32)c(Cl)c1` (single isomer, unassigned; (-)) [Example 24, (−)-5-Chloro-6-{2-[2-(4-chloro-phenyl)-5,6-difluoro-benzoimidazol-1-yl]-2-cyclohexyl-ethoxy}-nicotinic acid], the 50% inhibitory concentration (IC50) was 0.02 µM.

In the case of `O=C(O)c1cnc(OCC(C2CCCCC2)n2c(-c3ccc(Cl)cc3)nc3cc(F)c(F)cc32)c2ccsc12` (single isomer, unassigned; (-)) [Example 28, (−)-4-{2-[2-(4-Chloro-phenyl)-5,6-difluoro-benzoimidazol-1-yl]-2-cyclohexyl-ethoxy}-thieno[3,2-c]pyridine-7-carboxylic acid], the IC50 was 0.04 µM.

With `O=C(O)c1ccc(OCC(C2CCCCC2)n2c(-c3ccc(Cl)cc3)nc3cc(F)c(F)cc32)c(C(F)(F)F)c1` (single isomer, unassigned; (-)) [Example 41, (−)-4-{2-[2-(4-Chloro-phenyl)-5,6-difluoro-benzoimidazol-1-yl]-2-cyclohexyl-ethoxy}-3-trifluoromethyl-benzoic acid], the IC50 came out at 0.07 µM.

On to `O=C(O)c1c(F)cc(OCC(C2CCCCC2)n2c(-c3ccc(Cl)cc3)nc3cc(F)c(F)cc32)cc1F` (single isomer, unassigned; (-)) [Example 44, (−)-4-{2-[2-(4-Chloro-phenyl)-5,6-difluoro-benzoimidazol-1-yl]-2-cyclohexyl-ethoxy}-2,6-difluoro-benzoic acid], for which the IC50 amounted to 0.4 µM.

The same assay, now with this note: h-IC50 Binding, 40 nM GST-FXR LBD on SPA beads, test compound 6×10^−9 M to 2.5×10^−5 M.
In turn, `O=C(O)c1ccc(OCC(C2CCCCC2)n2c(-c3ccc(Cl)cc3)nc3cc(F)c(F)cc32)c(F)c1` (single isomer, unassigned; (-)) [Example 8, (−)-4-{2-[2-(4-Chloro-phenyl)-5,6-difluoro-benzoimidazol-1-yl]-2-cyclohexyl-ethoxy}-3-fluoro-benzoic acid] registered an IC50 of 0.02 µM.

These data come from patent US8088930B2, “Benzimidazole derivatives” (Hoffmann-La Roche Inc., priority 2008, dated 2012).
